PubChem BioAssay AID1745844 (Carcinogenic Potency Database (CPDB), 2022)
Calls of active or inactive are those of the source. The rule behind the calls is not given here.

Tested on: rodent lifetime carcinogenesis bioassay, tumor incidence TD50
Experiment: carcinogenic potency in animals, long-term in vivo studies, CPDB compilation (AID 1745844)
Conditions: mouse, study length 104 weeks

ClCCl
TD50 (strain B6C3F1, females, inhaled, site: any site (literature study), lesion: several types, types named in the paper, dosed 102 weeks): 1020 mg/kg/day
TD50 (strain B6C3F1, females, inhaled, site: liver + lung, lesion: hepatocellular adenoma + hepatocellular carcinoma + alveolar/bronchiolar adenoma + alveolar/bronchiolar carcinoma, dosed 102 weeks): 817 mg/kg/day
TD50 (strain B6C3F1, females, inhaled, site: liver, lesion: hepatocellular adenoma + hepatocellular carcinoma + neoplastic nodule, dosed 102 weeks): 1430 mg/kg/day
TD50 (strain B6C3F1, females, inhaled, site: liver, lesion: hepatocellular adenoma + hepatocellular carcinoma, dosed 102 weeks): 1430 mg/kg/day
TD50 (strain B6C3F1, females, inhaled, site: liver, lesion: hepatocellular adenoma, dosed 26 weeks): 2570 mg/kg/day
TD50 (strain B6C3F1, females, inhaled, site: liver, lesion: hepatocellular adenoma, dosed 52 weeks): 6250 mg/kg/day
TD50 (strain B6C3F1, females, inhaled, site: liver, lesion: hepatocellular adenoma, dosed 78 weeks): 2780 mg/kg/day
TD50 (strain B6C3F1, females, inhaled, site: liver, lesion: hepatocellular adenoma, dosed 102 weeks): 3170 mg/kg/day
TD50 (strain B6C3F1, females, inhaled, site: liver, lesion: hepatocellular adenoma, dosed 104 weeks): 4860 mg/kg/day
TD50 (strain B6C3F1, females, inhaled, site: liver, lesion: hepatocellular carcinoma, dosed 26 weeks): 6790 mg/kg/day
TD50 (strain B6C3F1, females, inhaled, site: liver, lesion: hepatocellular carcinoma, dosed 52 weeks): 4960 mg/kg/day
TD50 (strain B6C3F1, females, inhaled, site: liver, lesion: hepatocellular carcinoma, dosed 78 weeks): 4020 mg/kg/day
TD50 (strain B6C3F1, females, inhaled, site: liver, lesion: hepatocellular carcinoma, dosed 102 weeks): 1850 mg/kg/day
TD50 (strain B6C3F1, females, inhaled, site: liver, lesion: hepatocellular carcinoma, dosed 104 weeks): 2750 mg/kg/day
TD50 (strain B6C3F1, females, inhaled, site: liver, lesion: several types, types named in the paper, dosed 26 weeks): 1840 mg/kg/day
TD50 (strain B6C3F1, females, inhaled, site: liver, lesion: several types, types named in the paper, dosed 52 weeks): 2850 mg/kg/day
TD50 (strain B6C3F1, females, inhaled, site: liver, lesion: several types, types named in the paper, dosed 78 weeks): 1730 mg/kg/day
TD50 (strain B6C3F1, females, inhaled, site: liver, lesion: several types, types named in the paper, dosed 104 weeks): 1740 mg/kg/day
TD50 (strain B6C3F1, females, inhaled, site: lung, lesion: adenoma, dosed 26 weeks): 3400 mg/kg/day
TD50 (strain B6C3F1, females, inhaled, site: lung, lesion: adenoma, dosed 52 weeks): 3810 mg/kg/day
TD50 (strain B6C3F1, females, inhaled, site: lung, lesion: adenoma, dosed 78 weeks): 3590 mg/kg/day
TD50 (strain B6C3F1, females, inhaled, site: lung, lesion: alveolar/bronchiolar adenoma + alveolar/bronchiolar carcinoma, dosed 102 weeks): 917 mg/kg/day
TD50 (strain B6C3F1, females, inhaled, site: lung, lesion: alveolar/bronchiolar adenoma, dosed 102 weeks): 1420 mg/kg/day
TD50 (strain B6C3F1, females, inhaled, site: lung, lesion: alveolar/bronchiolar adenoma, dosed 104 weeks): 5020 mg/kg/day
TD50 (strain B6C3F1, females, inhaled, site: lung, lesion: alveolar/bronchiolar carcinoma, dosed 102 weeks): 1690 mg/kg/day
TD50 (strain B6C3F1, females, inhaled, site: lung, lesion: alveolar/bronchiolar carcinoma, dosed 104 weeks): 2670 mg/kg/day
TD50 (strain B6C3F1, females, inhaled, site: lung, lesion: carcinoma, dosed 26 weeks): 1650 mg/kg/day
TD50 (strain B6C3F1, females, inhaled, site: lung, lesion: carcinoma, dosed 52 weeks): 952 mg/kg/day
TD50 (strain B6C3F1, females, inhaled, site: lung, lesion: carcinoma, dosed 78 weeks): 2830 mg/kg/day
TD50 (strain B6C3F1, females, inhaled, site: lung, lesion: several types, types named in the paper, dosed 26 weeks): 1280 mg/kg/day
TD50 (strain B6C3F1, females, inhaled, site: lung, lesion: several types, types named in the paper, dosed 52 weeks): 804 mg/kg/day
TD50 (strain B6C3F1, females, inhaled, site: lung, lesion: several types, types named in the paper, dosed 78 weeks): 1520 mg/kg/day
TD50 (strain B6C3F1, females, inhaled, site: lung, lesion: several types, types named in the paper, dosed 104 weeks): 1650 mg/kg/day
TD50 (strain B6C3F1, females, inhaled, site: thyroid gland, lesion: follicular-cell adenoma, dosed 102 weeks): 15800 mg/kg/day
TD50 (strain B6C3F1, males, in drinking water, site: liver, lesion: hepatocellular adenoma, dosed 104 weeks): 2900 mg/kg/day (inactive)
TD50 (strain B6C3F1, males, in drinking water, site: liver, lesion: hepatocellular carcinoma, dosed 104 weeks): 2350 mg/kg/day (inactive)
TD50 (strain B6C3F1, males, in drinking water, site: liver, lesion: several types, types named in the paper, dosed 104 weeks): 1310 mg/kg/day (inactive)
carcinogen call (strain B6C3F1, males, in drinking water, site: thyroid gland, lesion: one or several types, types not named, dosed 104 weeks): negative (inactive)
TD50 (strain B6C3F1, males, inhaled, site: all sites, lesion: hemangioma + hemangiosarcoma, dosed 102 weeks): 13200 mg/kg/day
TD50 (strain B6C3F1, males, inhaled, site: all sites, lesion: hemangiosarcoma, dosed 102 weeks): 12900 mg/kg/day
TD50 (strain B6C3F1, males, inhaled, site: any site (literature study), lesion: several types, types named in the paper, dosed 102 weeks): 1160 mg/kg/day
TD50 (strain B6C3F1, males, inhaled, site: liver + lung, lesion: hepatocellular adenoma + hepatocellular carcinoma + alveolar/bronchiolar adenoma + alveolar/bronchiolar carcinoma, dosed 102 weeks): 1090 mg/kg/day
TD50 (strain B6C3F1, males, inhaled, site: liver, lesion: hepatocellular adenoma + hepatocellular carcinoma + neoplastic nodule, dosed 102 weeks): 1800 mg/kg/day
TD50 (strain B6C3F1, males, inhaled, site: liver, lesion: hepatocellular adenoma + hepatocellular carcinoma, dosed 102 weeks): 1800 mg/kg/day
TD50 (strain B6C3F1, males, inhaled, site: liver, lesion: hepatocellular adenoma, dosed 102 weeks): 3480 mg/kg/day
TD50 (strain B6C3F1, males, inhaled, site: liver, lesion: hepatocellular carcinoma, dosed 102 weeks): 2690 mg/kg/day
TD50 (strain B6C3F1, males, inhaled, site: lung, lesion: alveolar/bronchiolar adenoma + alveolar/bronchiolar carcinoma, dosed 102 weeks): 920 mg/kg/day
TD50 (strain B6C3F1, males, inhaled, site: lung, lesion: alveolar/bronchiolar adenoma, dosed 102 weeks): 1680 mg/kg/day
TD50 (strain B6C3F1, males, inhaled, site: lung, lesion: alveolar/bronchiolar carcinoma, dosed 102 weeks): 1710 mg/kg/day
TD50 (strain Swiss, females, by gavage, site: lung, lesion: adenoma, dosed 64 weeks): 7050 mg/kg/day
TD50 (strain Swiss, males, by gavage, site: lung, lesion: adenoma, dosed 64 weeks): 916 mg/kg/day
